According to the OPERA property sets (Mansouri et al. 2018):
Converted amounts (≈) assume the structure as drawn.

| SMILES | logP | also measured |
| --- | --- | --- |
| CCCCNC1(P(=O)(OCCCC)OCCCC)CCCCC1 |  | solubility (20 °C): 0.489 mM (≈ 170 µg/mL) |
| O=[N+]([O-])/N=C1\NCCN1Cc1ccc(Cl)nc1 | 0.57 |  |
| CCCN(CC1CC1)c1c([N+](=O)[O-])cc(C(F)(F)F)cc1[N+](=O)[O-] |  | solubility (20 °C): 0.000288 mM (≈ 0.1 µg/mL) |
| CCN(Cc1ccc(Cl)nc1)/C(=C/[N+](=O)[O-])NC | -0.66 |  |
| CCC(C)(CC)c1cc(NC(=O)c2c(OC)cccc2OC)on1 | 3.94 |  |
| Clc1ccc(C2(Cn3cncn3)CC(Br)CO2)c(Cl)c1 (configuration not stated) | 3.24 | solubility (25 °C): 0.133 mM (≈ 50 µg/mL) |
| O=[N+]([O-])c1cc(C(F)(F)F)c(Cl)c([N+](=O)[O-])c1Nc1ncc(C(F)(F)F)cc1Cl | 4.01 |  |
| C[n+]1ccc(-c2cc[n+](C)cc2)cc1 |  | solubility (20 °C): 2410 mM |
| CCSC(=O)N(CC)C1CCCCC1 | 3.88 |  |
| CCOC1Oc2ccc(OS(C)(=O)=O)cc2C1(C)C (configuration not stated) | 2.7 | solubility (25 °C): 0.259 mM (≈ 74.1 µg/mL) |
| C[n+]1ccc(-c2cc[n+](C)cc2)cc1.[Cl-].[Cl-] | -4.5 | solubility (20 °C): 2720 mM |
| C=CCOC(Cn1ccnc1)c1ccc(Cl)cc1Cl (configuration not stated) | 3.82 | solubility (pH 7.6, 20 °C): 0.606 mM (≈ 180 µg/mL) |
| N#Cc1c(Cl)c(Cl)c(Cl)c(C#N)c1Cl |  | solubility (25 °C): 0.00226 mM (≈ 0.6 µg/mL) |
| CSc1nnc(C(C)(C)C)c(=O)n1/N=C/C(C)C |  | solubility (20 °C): 0.0373 mM (≈ 10 µg/mL) |
| CN(C)C(=S)SSC(=S)N(C)C | 1.73 |  |
| Fc1ccc(Oc2ccnc3cc(Cl)cc(Cl)c23)cc1 | 4.66 | solubility (20 °C): 0.000376 mM (≈ 0.116 µg/mL) |
| Cc1ccc2nc3sc(=O)sc3nc2c1 | 3.78 | solubility (20 °C): 0.00427 mM (≈ 1 µg/mL) |
| COC(=O)N(OC)c1ccccc1COc1ccn(-c2ccc(Cl)cc2)n1 | 3.99 |  |
| Nc1c(Cl)c(F)nc(OCC(=O)O)c1Cl |  | solubility (pH 9.2, 20 °C): 0.357 mM (≈ 91 µg/mL) |
| CON=C(C(=O)OC)c1ccccc1CON=C(C)c1cccc(C(F)(F)F)c1 | 4.5 |  |
| Nc1c(Cl)c(Cl)nc(C(=O)O)c1Cl | 1.9 |  |
| CC(C)=CC1C(C(=O)OCc2cccc(Oc3ccccc3)c2)C1(C)C (configuration not stated) | 6.01 | solubility (25 °C): < 2.77e-05 mM |
| CC1=C(C(=O)Nc2ccccc2)S(=O)(=O)CCO1 | 0.77 | solubility (25 °C): 4.43 mM (≈ 1180 µg/mL) |
| Nc1nc[nH]n1 | -0.97 |  |
| COC(=O)N(C(=O)N1CO[C@@]2(C(=O)OC)Cc3cc(Cl)ccc3C2=N1)c1ccc(OC(F)(F)F)cc1 | 4.65 |  |
| O=C(Nc1ccccc1-c1ccc(Cl)cc1)c1cccnc1Cl | 2.96 |  |
| CCCCOC(=O)[C@@H](C)Oc1ccc(Oc2ccc(C#N)cc2F)cc1 | 3.31 |  |

| SMILES | logP | also measured |
| --- | --- | --- |
| CC(Oc1cccc(Cl)c1)C(=O)O (configuration not stated) |  | solubility (22 °C): 5.98 mM (≈ 1200 µg/mL) |
| CC1(C(=O)Nc2ccc(O)c(Cl)c2Cl)CCCCC1 | 3.51 |  |
| N#CCON=C(C#N)c1ccccc1 |  | solubility (20 °C): 0.513 mM (≈ 95 µg/mL) |
| CC(C)N1C(=O)N(c2ccccc2)CSC1=NC(C)(C)C | 4.3 | solubility (20 °C): 0.00295 mM (≈ 0.9 µg/mL) |
| CN/C(=N\[N+](=O)[O-])NCc1cnc(Cl)s1 | 0.7 |  |
| CCCC1COC(Cn2cncn2)(c2ccc(Cl)cc2Cl)O1 (configuration not stated) | 3.72 | solubility (20 °C): 0.321 mM (≈ 110 µg/mL) |
| COC(=O)c1ccccc1S(=O)(=O)NC(=O)N(C)c1nc(C)nc(OC)n1 |  | solubility (pH 5.0, 25 °C): 0.126 mM (≈ 50 µg/mL) |
| CC1OC(C)OC(C)OC(C)O1 (configuration not stated) | 0.12 |  |
| COC(=O)c1ccccc1S(=O)(=O)NC(=O)Nc1nc(C)cc(C)n1 |  | solubility (pH 7.0, 25 °C): 0.743 mM (≈ 271 µg/mL) |
| CC(C)=CC1C(C(=O)OCc2coc(Cc3ccccc3)c2)C1(C)C (configuration not stated) |  | solubility (25 °C): 0.000315 mM (≈ 0.107 µg/mL) |
| C[C@@H]1[C@@H](c2ccc(Cl)cc2)SC(=O)N1C(=O)NC1CCCCC1 (single isomer, unassigned) |  | solubility (20 °C): 0.00142 mM (≈ 0.5 µg/mL) |
| C#CCOS(=O)OC1CCCCC1Oc1ccc(C(C)(C)C)cc1 (configuration not stated) |  | solubility (25 °C): 0.00143 mM (≈ 0.5 µg/mL) |
| CN1CSC(=S)N(C)C1 | 0.63 | solubility (20 °C): 18.5 mM (≈ 3000 µg/mL) |
| CC(C)N(C(=O)CCl)c1ccccc1 |  | solubility (25 °C): 3.31 mM (≈ 700 µg/mL) |
| CC1=C(C(=O)Nc2ccccc2)SCCO1 |  | solubility (20 °C): 0.672 mM (≈ 158 µg/mL) |
| O=C(Nc1ccccc1)Nc1cnns1 |  | logD (pH 7.3): 1.77 |
| CCN(CC)c1c([N+](=O)[O-])cc(C(F)(F)F)c(N)c1[N+](=O)[O-] | 4.3 |  |
| C/C=C(\C)C(=O)O[C@H]1C[C@@H](OC(C)=O)[C@@]2(C(=O)OC)CO[C@H]3[C@@H](O)[C@@](C)([C@]45O[C@@]4(C)[C@H]4C[C@@H]5O[C@@H]5OC=C[C@@]54O)[C@H]4[C@]1(CO[C@]4(O)C(=O)OC)[C@@H]32 |  | solubility: 0.361 mM (≈ 260 µg/mL) |
| CCOP(=O)(OCC)SCCSCC |  | solubility (20 °C): 7.74 mM (≈ 2000 µg/mL) |
| CCC(CC)Nc1c([N+](=O)[O-])cc(C)c(C)c1[N+](=O)[O-] | 5.2 | solubility (20 °C): 0.00107 mM (≈ 0.3 µg/mL) |
| CCOC(=O)COc1cc(-c2nn(C)c(OC(F)F)c2Cl)c(F)cc1Cl | 3.49 |  |
| CCCC(=O)N(CSP(=S)(OC)OC)c1ccccc1Cl | 0.56 |  |
| CCC(C)(NC(=O)c1cc(Cl)c(C)c(Cl)c1)C(=O)CCl (configuration not stated) | 3.76 |  |
| CCCCCCCC(=O)Oc1c(Br)cc(C#N)cc1Br | 5.4 |  |
| N#CN | -0.82 | solubility (20 °C): 11900 mM (≈ 500000 µg/mL) |
| COC(=O)c1ccccc1CS(=O)(=O)NC(=O)Nc1nc(OC)cc(OC)n1 | 2.18 |  |
| CCCCC(CC)COC(=O)COc1ccc(Cl)cc1Cl (configuration not stated) | 5.78 |  |
